In patent US11512079B2, “Heterocycle substituted pyridine derivative antifungal agents” (Amplyx Pharmaceuticals, Inc., priority 2017, dated 2022):
In brackets after ≈: the same amount, converted by molar mass.

Assays:
Format in all cases: cell-based
Candida albicans 90028 = assay: In vitro antifungal assay (Example IX), microdilution broth, MIC; details: minimum inhibitory concentration (≥50% inhibition), 35° C., 40-48 h, RPMI1640
Protocol: Measurement of antifungal activity: Antifungal activity of the compounds was evaluated in a microdilution broth assay as per Clinical and Laboratory Standard Institute methodology for yeast (for Candida and Cryptococcus) (1) and molds (for Aspergillus and Rhizomucor) (2). Candida albicans 90028, Aspergillus fumigatus MYA3626, Rhizomucor pusillus 46342 and Cryptococcus neoformans H99 strains were obtained from American Type Culture Collection (ATCC).
Preparation of Fungal Suspension. C. albicans 90028 and C. neoformans H99 strains were streaked from frozen stocks at −80° C. onto Sabouraud Dextrose Agar (SDA) plates. These were allowed to grow for 24 h (C. albicans) and 48 h (C. neoformans) at 35° C. before using them in the assay. 5-6 individual colonies were picked and diluted into sterile water to obtain a fungal suspension. The cell density of the suspension was determined and the culture diluted with RPMI1640 medium to obtain a fungal suspension of 2.5×10^3 cells/mL. The suspension was used in the MIC measurement as described below.
Preparation of Compound Stocks and Intermediate Dilutions: The compounds were weighed and DMSO was added to prepare a 10 mg/mL stock. The solutions were mixed by vortexing and sonication at 37° C. for 5-10 mins. The resulting solutions were sterile filtered using a PTFE filter, and aliquoted (12 μL or as needed) and stored at −20° C. Intermediate compound dilutions were prepared in sterile polypropylene tubes in 100% DMSO. The compound stock solution was first diluted in DMSO to obtain a concentration of […] to 0.19 μg/mL.
MIC/MEC Measurement: 99 μL 1 of the fungal suspension in RPMI1640 prepared as above was added to each well of a 96-well round bottom assay plate. 1 μL of the intermediate compound dilutions (200-0.19 μg/mL) were added to wells of the plate. This led to a 100-fold dilution of the intermediate dilutions resulting in a final compound concentration of 2-0.0019 μg/mL in the plate. 1 μL of DMSO was added to “No drug” control wells. The solutions were mixed by shaking on a plate shaker for 10 mins and plates incubated at 35° C. for 40-48 h (C. albicans, A. fumigatus, R. pusillus) and 72 h (Cryptococcus). […] This was validated by thorough mixing and reading at 600 nm on a microplate reader. The minimum concentration that led to shortening of hyphae as compared to hyphal growth in DMSO control wells was determined as the minimum effective concentration (MEC) for A. fumigatus and R. pusillus (as read for echinocandins). The use of the MIC and MEC endpoints against yeasts and molds, respectively has been described by Pfaller M A, Duncanson F, Messer S A, Moet G J, Jones R N, Castanheira M. Antimicrob Agents Chemother. 2011. 55(11):5155-8. In vitro activity of a novel broad-spectrum antifungal, E1210, tested against Aspergillus spp. determined by CLSI and EUCAST broth microdilution methods. Results are shown in Table 2, and the letters indicate the following ranges in μg/mL: […]

[1] = tested on: Rhizomucor pusillus 46342; assay: In vitro antifungal assay (Example IX), microdilution broth, MEC; details: minimum effective concentration (shortening of hyphae), 35° C., 40-48 h, RPMI1640
Protocol: (§1) Measurement of antifungal activity: […] Candida albicans 90028, Aspergillus fumigatus MYA3626, Rhizomucor pusillus 46342 and Cryptococcus neoformans […] strains were obtained from American Type Culture Collection (ATCC). […] (A. fumigatus) and 35° C. (R. pusillus). Water containing 1% Tween was directly added to the agar plate and gently agitated to wet and remove the Aspergillus conidia. For R. pusillus, water was added to the surface and gently massaged to wet and remove the spores. For both species, the conidia or spores and mycelial fragments were collected, followed by removal of mycelium, conidiophores and large clumps of conidia/spores. The resulting spore suspension was counted and diluted into RPMI1640 medium to adjust to a final suspension of 1-2×10^4 spores/mL. The suspension was used in the MEC measurement as described below. […] The compounds were weighed and DMSO was added to prepare a 10 mg/mL stock. The solutions were mixed by vortexing and sonication at 37° C. for 5-10 mins. The resulting solutions were sterile filtered using a PTFE filter, and aliquoted (12 μL or as needed) and stored at -20° C. Intermediate compound dilutions were prepared in sterile polypropylene tubes in 100% DMSO. […] This was validated by thorough mixing and reading at 600 nm on a microplate reader. The minimum concentration that led to shortening of hyphae as compared to hyphal growth in DMSO control wells was determined as the minimum effective concentration (MEC) for A. fumigatus and R. pusillus (as read for echinocandins). The use of the MIC and MEC endpoints against yeasts and molds, respectively has been described by Pfaller M A, Duncanson F, Messer S A, Moet G J, Jones […]. Antimicrob Agents Chemother. 2011. 55(11):5155-8. In vitro activity of a novel broad-spectrum antifungal, […], tested against Aspergillus spp. determined by CLSI and EUCAST broth microdilution methods. Results are shown in Table 2, and the letters indicate the following ranges in μg/mL: […]

[2] = tested on: Aspergillus fumigatus MYA3626; assay: as above; details: minimum effective concentration (shortening of hyphae), 35° C., 40-48 h, RPMI1640
Protocol: as §1

SMILES	MIC (Candida albicans 90028) [µg/mL]	minimal effective concentration [1] [µg/mL]	minimal effective concentration [2] [µg/mL]
Nc1ncccc1-c1cc(Cc2ccc(COc3cccc4ccccc34)cc2)no1 [compound 24, 3-(3-(4-((naphthalen-1-yloxy)methyl)benzyl)isoxazol-5-yl)pyridin-2-amine]	> 1	> 1	> 1
N#Cc1ccc(COc2ccc(Cc3cc(-c4cccnc4N)on3)cc2)cc1 [compound 113, 4-((4-((5-(2-aminopyridin-3-yl)isoxazol-3-yl)methyl)phenoxy)methyl)benzonitrile]	> 1	> 1	0.1 to 1
CC(C)Cn1cc(Cc2ccc(Cc3cc(-c4cccnc4N)on3)cc2)cn1 [compound 16, 3-(3-(4-((1-isobutyl-1H-pyrazol-4-yl)methyl)benzyl)isoxazol-5-yl)pyridin-2-amine]	0.1 to 1 (≈ 0.258 to 2.58 µM)	0.1 to 1	0.1 to 1
Nc1ncccc1-c1cc(Cc2ccc(CNc3nc(=O)[nH]cc3F)cc2)no1 [compound 232, 4-((4-((5-(2-aminopyridin-3-yl)isoxazol-3-yl)methyl)benzyl)amino)-5-fluoropyrimidin-2(1H)-one]	> 1		> 1
Cn1ccc(Cc2ccc(Cc3cc(-c4cccnc4N)on3)cc2)n1 [Example 152, 3-(3-(4-((1-methyl-1H-pyrazol-3-yl)methyl)benzyl)isoxazol-5-yl)pyridin-2-amine]	0.01 to 0.1 (≈ 0.029 to 0.29 µM)	> 1	0.01 to 0.1
CC(Oc1ccc(Cc2cc(-c3cccnc3N)on2)cn1)c1ccccc1F (centres unmarked) [compound 56, 3-(3-((6-(1-(2-fluorophenyl)ethoxy)pyridin-3-yl)methyl)isoxazol-5-yl)pyridin-2-amine]	0.1 to 1 (≈ 0.256 to 2.56 µM)	> 1	0.1 to 1
Nc1ncccc1-c1cc(Cc2ccc(OCc3ccnc(Cl)c3F)nc2)no1 [compound 210, 3-(3-((6-((2-chloro-3-fluoropyridin-4-yl)methoxy)pyridin-3-yl)methyl)isoxazol-5-yl)pyridin-2-amine]	> 1	> 1	> 1
Cn1cc(COc2ccc(Cc3cc(-c4cccnc4N)on3)cn2)cn1 [compound 49, 3-(3-((6-((1-methyl-1H-pyrazol-4-yl)methoxy)pyridin-3-yl)methyl)isoxazol-5-yl)pyridin-2-amine]	> 1	> 1	> 1
COc1ccc(COc2ccc(Cc3cc(-c4cccnc4N)on3)cc2)cc1 [compound 109, 3-(3-(4-((4-methoxybenzyl)oxy)benzyl)isoxazol-5-yl)pyridin-2-amine]	> 1	> 1	> 1
Nc1ncccc1-c1cc(Cc2ccc(S(=O)(=O)N3CCOCC3)cc2)no1 [compound 228, 3-(3-(4-(morpholinosulfonyl)benzyl)isoxazol-5-yl)pyridin-2-amine]	> 1	> 1	> 1
Cn1ccc(COc2ccc(Cc3cc(-c4cccnc4N)on3)cn2)n1 [compound 45, 3-(3-((6-((1-methyl-1H-pyrazol-3-yl)methoxy)pyridin-3-yl)methyl)isoxazol-5-yl)pyridin-2-amine]	0.1 to 1 (≈ 0.276 to 2.76 µM)	> 1	0.1 to 1
c1ccc(Oc2ccc(Cn3cc(-c4cccnc4)cn3)cn2)cc1 [compound 64, 2-phenoxy-5-((4-(pyridin-3-yl)-1H-pyrazol-1-yl)methyl)pyridine]	0.1 to 1 (≈ 0.305 to 3.05 µM)	> 1	
Nc1ncccc1-c1cc(Cc2ccnc(Oc3ccccc3)c2)no1 [compound 88]	0.1 to 1 (≈ 0.29 to 2.9 µM)	> 1	0.1 to 1
N#Cc1cnn(Cc2ccc(Cc3cc(-c4cccnc4N)on3)cc2)c1 [compound 3, 1-(4-((5-(2-aminopyridin-3-yl)isoxazol-3-yl)methyl)benzyl)-1H-pyrazole-4-carbonitrile]	0.1 to 1 (≈ 0.281 to 2.81 µM)	> 1	0.1 to 1
Nc1ncccc1-c1cc(Cc2ccc(CNc3nc4ccccc4[nH]3)cc2)no1 [Example 145, N-(4-((5-(2-aminopyridin-3-yl)isoxazol-3-yl)methyl)benzyl)-1H-benzo[d]imidazol-2-amine]	> 1	> 1	> 1
Nc1ncccc1-c1cc(Cc2ccc(OCCc3c(F)cccc3Cl)nc2)no1 [Example 159, 3-(3-((6-(2-chloro-6-fluorophenethoxy)pyridin-3-yl)methyl)isoxazol-5-yl)pyridin-2-amine]	0.1 to 1 (≈ 0.235 to 2.35 µM)	> 1	0.1 to 1
Cc1ncsc1CCOc1ccc(Cc2cc(-c3cccnc3N)on2)cn1 [Example 155, 3-(3-((6-(2-(4-methylthiazol-5-yl)ethoxy)pyridin-3-yl)methyl)isoxazol-5-yl)pyridin-2-amine]	> 1	> 1	> 1
Nc1ncccc1-c1cc(Cc2ccc(OCc3cccc4ccccc34)nc2)no1 [Example 164, 3-(3-((6-(naphthalen-1-ylmethoxy)pyridin-3-yl)methyl)isoxazol-5-yl)pyridin-2-amine]	> 1	> 1	0.1 to 1
Nc1ncccc1-c1cc(Cc2ccc(CNC3CCCCNC3=O)cc2)no1 (centres unmarked) [compound 96, 3-((4-((5-(2-aminopyridin-3-yl)isoxazol-3-yl)methyl)benzyl)amino)azepan-2-one]	> 1	> 1	> 1
Nc1ncccc1-c1cc(Cc2ccc(N3CCCC3c3ccccc3)nc2)no1 (centres unmarked) [compound 229, 3-(3-((6-(2-phenylpyrrolidin-1-yl)pyridin-3-yl)methyl)isoxazol-5-yl)pyridin-2-amine]	> 1	> 1	> 1
Nc1ncccc1-c1cnn(Cc2ccc(Oc3ccccc3)nc2)c1 [compound 63, 3-(1-((6-phenoxypyridin-3-yl)methyl)-1H-pyrazol-4-yl)pyridin-2-amine]	0.1 to 1 (≈ 0.291 to 2.91 µM)	> 1	
Nc1ncccc1-c1cc(Cc2ccc(OCCc3cccc(F)c3)nc2)no1 [compound 91, 3-(3-((6-(3-fluorophenethoxy)pyridin-3-yl)methyl)isoxazol-5-yl)pyridin-2-amine]		> 1	
Nc1ncccc1-c1cc(Cc2ccc(OCc3cc(Cl)ccn3)nc2)no1 [compound 92, 3-(3-((6-((4-chloropyridin-2-yl)methoxy)pyridin-3-yl)methyl)isoxazol-5-yl)pyridin-2-amine]		0.1 to 1	
